Laboratory results as given in patent US20170311602A1, “METHODS AND COMPOSITIONS FOR THE CONTROL OF FUNGAL PATHOGENS IN CROP PLANTS” (Monsanto Technology LLC, priority 2014, published 2017).

Tests used:
Format in all cases: in vivo
[1] = test system: Colletotrichum graminicola; experiment: Field yield trial, seed treatments in inoculated soil plots; details: Acceleron 2013 base, N=10 locations, control 164.4
Procedure: (§1) Field trials were conducted to evaluate seed treatments for efficacy and yield. Field plots contained a single row or up to 4 rows by 20-40 feet. Smallest plot size was a single row by 20 feet. Four replications were typically used. The hybrids selected for the study were typically moderately susceptible to Anthracnose stalk rot, which indicates a susceptibility rating of at least 5-6 on a 9 point scale (1=highly resistant, 9=highly susceptible).
(§2) The typical growth stage for field inoculation was VT/R1 (tasseling/silking). For disease ratings, stalks were surface wounded using implements with needles that either provided shallow scratches on the surface of the stalk (˜1 cm depth) or shallow piercing wounds (˜1 cm depth). Concurrent with surface wounding, a spore suspension of Colletotrichum graminicola (C. graminicola) conidia is sprayed onto wounded area or injected into shallow wounds. The total volume of spore suspension applied was in the range of 1-5 mL. Yield trials were soil inoculated or non-inoculated (natural pressure). For soil inoculation the fungus was grown on sorghum seed and the infested sorghum seed was placed in furrow at planting of the trials.
(§3) Yield was determined in the following manner. The center two rows of the plot were harvested or both rows if it was a two row plot. The weight and percent moisture were recorded for each plot grain sample. The recorded plot weight and % moisture were converted to standardized weight using standard moisture of 15.5%. Each plot was normalized to kg/ha by interpolating plot yield area to hectares. Yield in bushels/acre (bu/A) was determined by interpolating plot yield area to acre and conversion to bu/A using a standard corn bushel weight of 56 lb.
All seeds, including control, were treated with Acceleron 2013 commercial seed treatment (disease control+insect control) as a base. N=10 locations.

[2] = test system: Colletotrichum graminicola; experiment: Field trial, Anthracnose stalk rot disease severity after stalk wounding and inoculation; details: 60 g ai/100 kg seed; Acceleron 2013 base; N=3 locations; control (surface wounding) 2.9
Procedure: Field trials were conducted to evaluate seed treatments for efficacy and yield. Field plots contained a single row or up to 4 rows by 20-40 feet. Smallest plot size was a single row by 20 feet. Four replications were typically used. The hybrids selected for the study were typically moderately susceptible to Anthracnose stalk rot, which indicates a susceptibility rating of at least 5-6 on a 9 point scale (1=highly resistant, 9=highly susceptible). […] The typical growth stage for field inoculation was […]). For disease ratings, stalks were surface wounded using implements with needles that either provided shallow scratches on the surface of the stalk ( 1 cm depth) or shallow piercing wounds ( 1 cm depth). Concurrent with surface wounding, a spore suspension of Colletotrichum graminicola (C. graminicola) conidia is sprayed onto wounded area or injected into shallow wounds. The total volume of spore suspension applied was in the range of 1-5 mL. […] Disease development was monitored in control treatments and disease evaluations were usually targeted when disease index rating reached approximately 5 on a 1-9 scale in control treatments. […] 10 stalks were assessed per plot. […] The stalks were split and the number of internodes with disease symptoms was counted starting at the internode above top node with brace roots (disease incidence rating). […]

Fusarium verticillioides = experiment: Tray seedling test, efficacy of seed treatment against Fusarium verticillioides; details: FS100, 30 g ai/100 kg seeds; untreated (% damage) 26%
Procedure: (§4) The seed tested (Amadeo harvest 2008, TKW 331,3) was seeded in trays 20×20×6 cm, with 9 holes for water release in field soil/quartz sand mix (1:1). Two repetitions with 25 kernels each were treated using standard seed treatment techniques. Each tray contained a single isolate of either Fusarium verticillioides G679, Fusarium verticillioides S039/07, Fusarium verticillioides S149/08, Colletotrichum graminicola BF0911 or Colletotrichum graminicola CG-1. The fungi were grown on sterile wheat grains. Thereafter, wheat grains were roughly ground after incubation and dried. For inoculation, either 5 or 15 ml of inoculum were scattered between the seeds at sowing, followed by incubation for 7 days at 10° C., followed by 7 days 24° C./15° C. (day/night period). Plants were evaluated for a) initial emergence (number of plants), b) final emergence (number of plants), c) disease level. Seedlings were classified in 3 categories: low, moderate or sevre necrosis. The disease score was calculated as follows: […]

corn = experiment: Field yield trials, seed treatments in non-inoculated soil plots (natural pressure); details: Acceleron 2013 base; for Yield Trial 1: N=22 locations, control 174.9; for Yield Trial 2: N=24 locations, control 174.4
Procedure: as §1, §2, §3
All seeds, including control, were treated with Acceleron 2013 commercial seed treatment (disease+insect control) as a base. N=22 locations.
All seeds, including control, were treated with Acceleron 2013 commercial seed treatment (disease+insect control) as a base. N=24 locations.

[3] = test system: corn stalk rot susceptible hybrids; experiment: Greenhouse seedling emergence trial for seed safety of treated corn seed; details: number of plants emerged at day 7, five plants per pot
Procedure: Seeds treated with chemistry were evaluated for seed safety in greenhouse emergence trials. Seed treatment active ingredients were combined in a slurry mix with colorant, polymer, and water at the recommended rates and allowed to mix thoroughly. Using a Gustafson BMC lab treater the seed batch was deposited in the BMC coater and treatment slurry was injected and allowed to tumble for 35-40 seconds before being ejected into a bulk collection bin and transferred to a paper storage bag. Standard corn stalk rot susceptible hybrids were planted using six pot replicates of five plants per pot. The treatments were randomized in RCBD, blocked by GH watering trays. Planting media consisted of 3.5 inch pots with the following media: US10 soil and 50/50 mix of US10/REDIEARTH. Replicates were placed perpendicular to the greenhouse temperature gradient.
Initial daily emergence counts at spike emergence of first treatment, continued until emergence was complete in untreated control (7-10 days after planting). The final stand was calculated as the number of plants emerged at day 7. The stand AUC was calculated as the area under the emergence curve.

[4] = test system: Colletotrichum graminicola; experiment: Tray seedling test, efficacy of seed treatment against Colletotrichum graminicola; details: FS100, 30 g ai/100 kg seeds; untreated (% damage) 22%
Procedure: as §4

Structure (SMILES) | Yield ([1]; 30 g/100 Kg seed) [bu/A] | Yield ([1]; 60 g/100 Kg seed) [bu/A] | Yield ([1]; 90 g/100 Kg seed) [bu/A] | Disease Severity (nodes ≧50% necrosis) [2] [nodes ≧50% necrosis] | Efficacy against Fusarium verticillioides (av. of 3 isolates) (Fusarium verticillioides) [% Abbott] | Yield Trial 1 (corn; 30 g/100 Kg seed) [Bu/acre] | Yield Trial 2 (corn; 30 g/100 Kg seed) [Bu/acre] | Yield Trial 1 (corn; 60 g/100 Kg seed) [Bu/acre] | Yield Trial 2 (corn; 60 g/100 Kg seed) [Bu/acre] | Yield Trial 2 (corn; 90 g/100 Kg seed) [Bu/acre] | Final Stand ([3]; 25 g ai/100 kg seed) | Final Stand ([3]; 50 g ai/100 kg seed) | Final Stand ([3]; 100 g ai/100 kg seed) | Final Stand ([3]; 200 g ai/100 kg seed) | Efficacy against Colletotrichum graminicola (av. 2 isolates) [4] [% Abbott] | Final Stand ([3]; 300 g ai/100 kg seed) | Final Stand ([3]; 400 g ai/100 kg seed)
OC(Cc1ccccc1Cl)(Cn1nc[nH]c1=S)C1(Cl)CC1 (centres unmarked) [Prothioconazole, prothioconazole] | 172.4 | 173.6 | 174 | 1.6 | 47 | 177.1 | 176.6 | 178.6 | 178.3 | 175.2 | 4.88 | 4.75 | 4.58 | 4.92 | 51 |  | 
CO/N=C(/C1=NOCCO1)c1ccccc1Oc1ncnc(Oc2ccccc2Cl)c1F [Fluoxastrobin, fluoxastrobin] | 169.4 | 172 | 171.8 | 1.5 | 3 | 175.9 | 175.9 | 179.1 | 177.6 | 176.3 | 4.79 | 4.67 | 4.63 | 4.83 | 88 | 4.58 | 4.99
